Results: patent US7863255B2, “Methods of administering antitumor agent comprising deoxycytidine derivative” (Taiho Pharmaceutical Co., Ltd., priority 2008, dated 2011)

Legend:
[1] = system: human-derived tumor lines; experiment: Antitumor tests using animal models, rapid intravenous infusion; assay type: in vivo; conditions: rapid intravenous infusion for 10 consecutive days, five times a week for two weeks, or once a week for two weeks; majority of lines; regrowth after completion
Text: However, the regrowth of tumors was observed after completion of the administration, and the cytoreductive effect was not necessarily shown. Further, increasing the dosage so as to increase the antitumor effect causes toxicity, including body weight suppression and leucopenia.

[2] = system: human breast cancer and colon cancer lines; experiment: Antitumor effect, rapid vs continuous intravenous infusion in tumor-bearing rat models, further lines; assay type: in vivo
[3] = system: patients having a variety of solid cancers; experiment: Clinical Phase I equivalent test, continuous intravenous infusion for 336 hours once every three weeks; assay type: in vivo, human
Method: The frequency of adverse events and treatment effect were studied in a case where a course was repeatedly performed in which the antitumor agent was administered to cancer patients by continuous intravenous infusion in an amount of 2.0 to 4.0 mg/m^2 of CNDAC (free base) for a duration of 336 hours once every three weeks.
(§1) The present test was conducted on patients having a variety of solid cancers for which standard treatment was ineffective or no treatment was available (e.g., digestive system cancer, head and neck cancer, breast cancer, and the like). The test is equivalent to the Clinical Phase I Test, which primarily evaluates safety so as to determine a recommended dose (RD) that can be safely administered with no side effect concerns in the Clinical Phase II Test implemented per cancer type. Treatment effect on tumors was also evaluated in the test when possible. In the treatment effect test, the cytoreductive effect was determined based on comprehensive evaluation of target lesions (lesions having a size measurable at a slice width on CT and a larger size) and non-target lesions (all lesions not included in the target lesions), with reference to the RECIST evaluation method (Journal of the National Cancer Institute, 2000, Vol. 92, No. 3, 205-216). […] SD (stable disease) indicates a case where reduction of tumors was not enough to be determined as PR, but insufficient to be determined as PD; and the progression of tumors stopped and no exacerbation was observed.

[4] = system: human colon cancer line KM20C; experiment: Antitumor effect of continuous intravenous infusion of CNDAC and gemcitabine in tumor-bearing rats; assay type: in vivo, rat
Method: The antitumor effect was studied in a continuous intravenous infusion of CNDAC and gemcitabine administered to tumor-bearing rats having the human colon cancer line KM20C. FIG. 2 indicates the results.
CNDAC was administered by continuous intravenous infusion (continuously injected under the skin for 24 hours using a subcutaneous implantation constant-speed pump) in an amount of 36 mg/kg/day on Days 1 and 8, or 4.5 mg/kg/day on Days 1 to 14. Alternatively, gemcitabine was administered by rapid intravenous infusion in an amount of 300 mg/kg/day once a week for two weeks (Days 1 and 8), or by continuous intravenous infusion in an amount of 1.0 mg/kg/day for two weeks. Relative tumor volume was obtained and compared in a drug administered group and a non-administered group (control group) of each administration method.

[5] = system: human pancreatic cancer line PAN-4; experiment: Antitumor effect of continuous intravenous infusion in tumor-bearing rats; assay type: in vivo, rat; conditions: two-week continuous infusion 4.5 mg/kg/day Days 1 to 14 compared with 24-hour continuous infusion 36 mg/kg/day Day 1
Method: (§2) A relation between the antitumor effect and side effect (body weight suppression) was studied in a continuous intravenous infusion of CNDAC administered to tumor-bearing rats having the human pancreatic cancer line PAN-4. FIGS. 3 and 4 indicate the results.
(§3) CNDAC was administered by continuous intravenous infusion (continuously injected under the skin for 24 hours using a subcutaneous implantation constant-speed pump) in an amount of 36 mg/kg/day on Day 1, or 4.5 mg/kg/day on Days 1 to 14. Relative tumor volume was obtained and compared in a CNDAC administered group and a non-administered group (control group) of each administration method.

[6] = system: human lung cancer line LX-1; experiment: Antitumor effect, rapid vs continuous intravenous infusion in tumor-bearing rats; assay type: in vivo, rat; conditions: continuous infusion 4.5 mg/kg/day for two weeks compared with rapid intravenous infusion (800 mg/kg/day Days 1, 5, 8, 12 or 20 mg/kg/day Days 1-5 and 8-12)
Method: The antitumor effect was studied in rapid intravenous infusion and continuous intravenous infusion of CNDAC in tumor-bearing rat models. FIG. 1 indicates the study results of the antitumor effect in rapid intravenous infusion and continuous intravenous infusion of CNDAC administered to tumor-bearing rats having the human lung cancer line LX-1.
CNDAC (free base) was administered by rapid intravenous infusion (rapidly injected into a caudal vein using a syringe) in an amount of 800 mg/kg/day on Days 1, 5, 8, and 12, or 20 mg/kg/day on Days 1 to 5 and 8 to 12. Alternatively, CNDAC was administered by continuous intravenous infusion (continuously injected under the skin for 24 hours using a subcutaneous implantation constant-speed pump) in an amount of 4.5 mg/kg/day for two weeks. Relative tumor volume (a ratio of tumor volume on Day 1 of administration and that on Day 14 of administration) was obtained in a CNDAC administered group and a non-administered group (control group) of each administration method, and the obtained relative tumor volume was compared.

[7] = Side effect (body weight suppression) in tumor-bearing rats having PAN-4; assay type: in vivo, rat
Method: as §2, §3
Further, body weight reduction in the two-week continuous intravenous infusion group and 24-hour continuous intravenous infusion group was studied.

[8] = system: patients having a variety of solid cancers; experiment: Clinical Phase I equivalent test, continuous intravenous infusion for 168 hours once every two weeks; assay type: in vivo, human
Method: as §1
The frequency of adverse events and treatment effect were studied in a case where a course was repeatedly performed in which the antitumor agent was administered by continuous intravenous infusion in an amount of 3.0 to 4.0 mg CNDAC (free base) per square meter of body surface area for a duration of 168 hours once every two weeks. Tested patients, evaluation methods, and evaluation standards are the same as those in the test in Example 1.

[9] = 3.0 mg/m^2, 336 hours once every three weeks
[10] = 4.0 mg/m^2, 168 hours once every two weeks

N#C[C@H]1[C@H](O)[C@@H](CO)O[C@H]1n1ccc(N)nc1=O [CNDAC, 4-amino-1-(2-cyano-2-deoxy-β-D-arabinofuranosyl)-2(1H)-pyrimidinone]
antitumor and antiproliferative effects [1]: strong antitumor and antiproliferative effects
antitumor effect of continuous compared with rapid intravenous infusion [2]: The effect was exhibited
adverse event requiring interruption of the administration ([3]; 2.0 mg/m^2, 336 hours once every three weeks): no adverse event was seen that required interruption of the administration
reduction (tumor) in one SD case ([3]; 2.0 mg/m^2, 336 hours once every three weeks, one case): about 15%
dose limiting toxicity (DLT) [3, 9]: not observed
neutropenia of Grades 3 and 4 [3, 9]: found in the second case each of two courses
efficacy (SD, stable disease), cases ([3]; 3.0 mg/m^2, 336 hours once every three weeks, RECIST): one out of the three cases
platelet reduction of Grade 4 ([3]; 4.0 mg/m^2, 336 hours once every three weeks): one out of the three cases
febrile neutropenia of CTCAE Grade 3 ([3]; 4.0 mg/m^2, 336 hours once every three weeks, three cases): all cases
dose limiting toxicity (DLT) observed, cases ([3]; 4.0 mg/m^2, 336 hours once every three weeks, three out of three cases): 100%
tumor volume after completion of administration ([4]; CNDAC continuous intravenous infusion (36 mg/kg/day Days 1 and 8 or 4.5 mg/kg/day Days 1 to 14)): significantly reduced even after the administration was completed
antitumor effect (relative tumor volume) [5]: significantly high antitumor effect
antitumor effect (relative tumor volume) [6]: high antitumor effect
body weight reduction at maximum ([7]; 24-hour continuous intravenous infusion group, 36 mg/kg/day on Day 1): 20.4%
body weight reduction at maximum ([7]; two-week continuous intravenous infusion, 4.5 mg/kg/day on Days 1 to 14): 4.6%
adverse event requiring interruption of the administration ([8]; 3.0 mg/m^2, 168 hours once every two weeks): no adverse event was seen that required interruption of the administration
febrile neutropenia of CTCAE Grade 3 [8, 10]: one case
neutropenia of Grade 4 [8, 10]: one case
efficacy (SD, stable disease), cases ([8]; 4.0 mg/m^2, 168 hours once every two weeks, two out of the three cases): 67%
dose limiting toxicity (DLT) observed, cases ([8]; 4.0 mg/m^2, 168 hours once every two weeks, two out of three evaluable cases): 67%

Nc1ccn([C@@H]2O[C@H](CO)[C@@H](O)C2(F)F)c(=O)n1 [gemcitabine, reference compound]
tumor volume after completion of administration ([4]; gemcitabine continuous intravenous infusion 1.0 mg/kg/day for two weeks): not reduced after the administration was completed
